Laboratory results reported in PubChem BioAssay AID2060486 (Molecular Pharmacology Branch, DTP, NCI, 2025).

Tested on: IGROV1 complex spheroids (HUVEC, MSC), viability % test/control
Experiment: Anticancer human tumor IGROV1 cell line growth inhibition [GQUAD];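 further: spheroids exposed to compounds for 7 days before readout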;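 on viability, T/C: 100% = DMSO vehicle control viability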
Conditions: for IC50: curve of first compound; for viability, T/C: stronger effect = lower value
Summary of the method: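 Tumor cells were grown as complex spheroids with HUVEC endothelial cells and mesenchymal stem cells as stroma. G-quadruplex stabilizers were combined with targeted agents over half-log dilutions from near the clinical Cmax, or from 10 microM.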

[1] = second compound 0.0316 µM, first compound 0.0316 µM
[2] = second compound 0.0316 µM, first compound 0.1 µM
[3] = second compound 0.0316 µM, first compound 0.316 µM
[4] = second compound 0.0316 µM, first compound 1 µM
[5] = second compound 0.0316 µM, first compound 3.16 µM
[6] = second compound 0.0316 µM, first compound 10 µM
[7] = second compound 0.1 µM, first compound 0.0316 µM
[8] = second compound 0.1 µM, first compound 0.1 µM
[9] = second compound 0.1 µM, first compound 0.316 µM
[10] = second compound 0.1 µM, first compound 1 µM
[11] = second compound 0.1 µM, first compound 3.16 µM
[12] = second compound 0.1 µM, first compound 10 µM
[13] = second compound 0.316 µM, first compound 0.0316 µM
[14] = second compound 0.316 µM, first compound 0.1 µM
[15] = second compound 0.316 µM, first compound 0.316 µM
[16] = second compound 0.316 µM, first compound 1 µM
[17] = second compound 0.316 µM, first compound 3.16 µM
[18] = second compound 0.316 µM, first compound 10 µM
[19] = second compound 1 µM, first compound 0.0316 µM
[20] = second compound 1 µM, first compound 0.1 µM
[21] = second compound 1 µM, first compound 0.316 µM
[22] = second compound 1 µM, first compound 1 µM
[23] = second compound 1 µM, first compound 3.16 µM
[24] = second compound 1 µM, first compound 10 µM
[25] = second compound 3.16 µM, first compound 0.0316 µM
[26] = second compound 3.16 µM, first compound 0.1 µM
[27] = second compound 3.16 µM, first compound 0.316 µM
[28] = second compound 3.16 µM, first compound 1 µM
[29] = second compound 3.16 µM, first compound 3.16 µM
[30] = second compound 3.16 µM, first compound 10 µM
[31] = second compound 10 µM, first compound 0.0316 µM
[32] = second compound 10 µM, first compound 0.1 µM
[33] = second compound 10 µM, first compound 0.316 µM
[34] = second compound 10 µM, first compound 1 µM
[35] = second compound 10 µM, first compound 3.16 µM
[36] = second compound 10 µM, first compound 10 µM

C=CCn1c(=O)c2cnc(Nc3ccc(N4CCN(C)CC4)cc3)nc2n1-c1cccc(C(C)(C)O)n1 + CN(C)c1ccc(Nc2c3ccc(NC(=O)CCN4CCCC4)cc3nc3cc(NC(=O)CCN4CCCC4)ccc23)cc1
IC50 (second compound 0.0316 µM): 153 nM | IC50 (second compound 0.1 µM): 145 nM | IC50 (second compound 0.316 µM): 138 nM | IC50 (second compound 1 µM): 136 nM | IC50 (second compound 3.16 µM): 112 nM | IC50 (second compound 10 µM): < 31.6 nM | viability, T/C [1]: 92.4% | viability, T/C [2]: 72.3% | viability, T/C [3]: 12.3% | viability, T/C [4]: 3.27% | viability, T/C [5]: 3.29% | viability, T/C [6]: 2.49% | viability, T/C [7]: 90.8% | viability, T/C [8]: 68.1% | viability, T/C [9]: 12.1% | viability, T/C [10]: 2.73% | viability, T/C [11]: 2.54% | viability, T/C [12]: 2.34% | viability, T/C [13]: 76.4% | viability, T/C [14]: 65.5% | viability, T/C [15]: 10.3% | viability, T/C [16]: 3.01% | viability, T/C [17]: 2.63% | viability, T/C [18]: 1.87% | viability, T/C [19]: 61.6% | viability, T/C [20]: 69.2% | viability, T/C [21]: 8.29% | viability, T/C [22]: 2.65% | viability, T/C [23]: 2.66% | viability, T/C [24]: 2.32% | viability, T/C [25]: 67.7% | viability, T/C [26]: 54.5% | viability, T/C [27]: 7.41% | viability, T/C [28]: 3.03% | viability, T/C [29]: 2.47% | viability, T/C [30]: 1.97% | viability, T/C [31]: 37.6% | viability, T/C [32]: 27.4% | viability, T/C [33]: 5.31% | viability, T/C [34]: 2.61% | viability, T/C [35]: 1.87% | viability, T/C [36]: 1.28%

COc1ncnc(C2CC2)c1-c1ncc2cnn(Cc3ccc(-c4nc(C(F)(F)F)cn4C(C)C)cc3)c2n1 + CN(C)c1ccc(Nc2c3ccc(NC(=O)CCN4CCCC4)cc3nc3cc(NC(=O)CCN4CCCC4)ccc23)cc1
IC50 (second compound 0.0316 µM): > 10000 nM | IC50 (second compound 0.1 µM): > 10000 nM | IC50 (second compound 0.316 µM): > 10000 nM | IC50 (second compound 1 µM): > 10000 nM | IC50 (second compound 3.16 µM): > 10000 nM | IC50 (second compound 10 µM): 237 nM | viability, T/C [1]: 93.5% | viability, T/C [2]: 99% | viability, T/C [3]: 95.3% | viability, T/C [4]: 89.2% | viability, T/C [5]: 104% | viability, T/C [6]: 83.2% | viability, T/C [7]: 86.9% | viability, T/C [8]: 93% | viability, T/C [9]: 94.1% | viability, T/C [10]: 78.2% | viability, T/C [11]: 100% | viability, T/C [12]: 82.2% | viability, T/C [13]: 77.3% | viability, T/C [14]: 88.4% | viability, T/C [15]: 103% | viability, T/C [16]: 79.2% | viability, T/C [17]: 93.2% | viability, T/C [18]: 82.2% | viability, T/C [19]: 66.5% | viability, T/C [20]: 89.1% | viability, T/C [21]: 98.7% | viability, T/C [22]: 74% | viability, T/C [23]: 83.4% | viability, T/C [24]: 80.9% | viability, T/C [25]: 52.1% | viability, T/C [26]: 69.2% | viability, T/C [27]: 75.3% | viability, T/C [28]: 88.8% | viability, T/C [29]: 75% | viability, T/C [30]: 62.5% | viability, T/C [31]: 50% | viability, T/C [32]: 53% | viability, T/C [33]: 51.5% | viability, T/C [34]: 41.6% | viability, T/C [35]: 37.7% | viability, T/C [36]: 9.91%
